Source: ChEMBL document CHEMBL1201862, “PubChem BioAssay data set” (2004)
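These data come from cells grown in 96-well plates and exposed to compound for 48 hours at five concentrations. GI50 is the concentration that inhibits growth by half.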 Calls of active or inactive are those of the source. No stated cut-off is given here; in the data, active = GI50 up to about 1.1 µM and inactive = higher.

Experiments:
Experiment in all cases: NCI anticancer screen, dose series, 48 h
[1] = system: MCF7
[2] = system: HCT-116
[3] = system: UACC-257
[4] = system: NCI-H23
[5] = system: CAKI-1
[6] = system: MDA-MB-231
[7] = system: PC-3
[8] = system: MDA-MB-435
[9] = system: COLO 205
[10] = system: OVCAR-5
[11] = system: BT-549
[12] = system: SF-539
[13] = system: NCI-H226
[14] = system: A549
[15] = system: NCI-H460
[16] = system: M14
[17] = system: HCC 2998
[18] = system: SK-MEL-2
[19] = system: SNB-75

Measured: GI50

CC(C)C[C@H](NC(=O)CCc1ccccc1)B(O)O
inactive: [1] 6.03 µM | [2] 5.87 µM | [3] 12.5 µM | [4] 16.5 µM | [5] 5.08 µM | [6] 17.7 µM | [7] 37.2 µM | [8] 2.67 µM | [9] 12.7 µM | [10] 13.6 µM | [11] 17.5 µM | [12] 4.54 µM | [13] 1.62 µM | [14] 35.4 µM | [15] 19 µM | [16] 12.1 µM | [17] 13.7 µM | [18] 12.7 µM

c1ccc(-c2cnc(-c3ccc(-c4ncc(-c5ccccc5)o4)cc3)o2)cc1
inactive: [1] > 100 µM | [2] > 100 µM | [3] > 100 µM | [19] 56.5 µM | [4] > 100 µM | [6] > 100 µM | [7] > 100 µM | [8] > 100 µM | [9] > 100 µM | [10] > 100 µM | [11] > 100 µM | [13] > 100 µM | [14] > 100 µM | [15] > 100 µM | [16] > 100 µM | [17] > 100 µM

Cc1nc(/C(=N\n2cnnc2)Nc2ccc(Br)cc2)no1
inactive: [1] > 100 µM | [2] > 100 µM | [3] > 100 µM | [19] 66.7 µM | [4] > 100 µM | [5] > 100 µM | [6] > 100 µM | [7] > 100 µM | [8] > 100 µM | [9] > 100 µM | [10] > 100 µM | [11] > 100 µM | [14] > 100 µM | [15] > 100 µM | [16] > 100 µM | [17] > 100 µM | [18] > 100 µM

CC(C)OC1=C(CC2(C)OCCO2)C(=O)C12OCCO2
inactive: [1] > 100 µM | [2] > 100 µM | [3] > 100 µM | [19] > 100 µM | [4] 42 µM | [5] > 100 µM | [6] > 100 µM | [7] > 100 µM | [8] > 100 µM | [9] > 100 µM | [10] > 100 µM | [11] > 100 µM | [12] > 100 µM | [13] > 100 µM | [14] > 100 µM | [15] > 100 µM | [16] > 100 µM | [18] > 100 µM

c1ccc(C2=NNC3c4ccccc4-c4ccccc4N3C2)cc1 (configuration not stated)
inactive: [1] 14.7 µM | [2] 34 µM | [3] 27.2 µM | [19] 21.9 µM | [4] 26.1 µM | [5] 43 µM | [6] 26 µM | [7] 23.7 µM | [8] 27.8 µM | [9] 18.4 µM | [10] 99.8 µM | [11] 33.3 µM | [12] 22.4 µM | [13] 26.9 µM | [14] 32.7 µM | [15] 21.9 µM | [16] 29.2 µM | [18] 20.1 µM

Cc1cc2c(c(C(=O)NCCC(=O)N[C@@H](C)C(=O)OCc3ccccc3)c1)Oc1c(cc(C)cc1C(=O)NCCC(=O)N[C@@H](C)C(=O)OCc1ccccc1)S2
inactive: [1] > 100 µM | [2] > 100 µM | [3] > 100 µM | [19] > 100 µM | [4] > 100 µM | [5] > 100 µM | [6] > 100 µM | [7] > 100 µM | [8] > 100 µM | [9] > 100 µM | [10] > 100 µM | [11] > 100 µM | [13] > 100 µM | [14] > 100 µM | [15] > 100 µM | [16] > 100 µM | [17] > 100 µM | [18] > 100 µM

COC(=O)c1ccc(OCCn2nnc(C(=O)NN)c2C(=O)NN)cc1
inactive: [1] > 100 µM | [2] > 100 µM | [3] > 100 µM | [4] > 100 µM | [5] > 100 µM | [6] > 100 µM | [7] > 100 µM | [8] > 100 µM | [9] > 100 µM | [10] > 100 µM | [11] > 100 µM | [14] > 100 µM | [15] 74 µM | [16] > 100 µM | [17] > 100 µM | [18] > 100 µM

c1ccc2c(CC3NCCN3)cccc2c1
inactive: [1] > 100 µM | [2] > 100 µM | [3] > 100 µM | [19] > 100 µM | [4] > 100 µM | [5] > 100 µM | [6] > 100 µM | [7] > 100 µM | [8] > 100 µM | [9] > 100 µM | [10] > 100 µM | [11] > 100 µM | [12] > 100 µM | [13] > 100 µM | [14] > 100 µM | [15] > 100 µM | [16] > 100 µM | [18] > 100 µM

COC(=O)/C=C\C(C#N)(C#N)/N=C/c1ccsc1
inactive: [1] 1.88 µM | [2] 1.75 µM | [3] 4.45 µM | [19] 15.7 µM | [4] 7.45 µM | [5] 2.26 µM | [6] 5.73 µM | [7] 11.6 µM | [8] 5.4 µM | [9] 1.37 µM | [10] 7.24 µM | [11] 1.84 µM | [13] 20.4 µM | [14] 17.7 µM | [15] 17.3 µM | [16] 2.45 µM | [17] 16.1 µM | [18] 16.9 µM

C[N+](C)(CCCn1ccnc1[N+](=O)[O-])CCCn1ccnc1[N+](=O)[O-]
inactive: [1] > 100 µM | [2] > 100 µM | [3] > 100 µM | [19] > 100 µM | [4] > 100 µM | [5] > 100 µM | [6] > 100 µM | [7] > 100 µM | [8] > 100 µM | [9] > 100 µM | [10] > 100 µM | [11] 69.8 µM | [12] > 100 µM | [13] > 100 µM | [14] > 100 µM | [15] > 100 µM | [16] > 100 µM | [18] > 100 µM

CSc1ccc(/C=C2\N=C(c3ccccc3)N(c3nc4ccc(Sc5ccccc5)cc4[nH]3)C2=O)cc1
inactive: [1] 15.1 µM | [2] 14.7 µM | [3] 13.9 µM | [19] 18.1 µM | [4] 26.3 µM | [5] 21.5 µM | [6] 18.3 µM | [7] 21.8 µM | [8] 5.28 µM | [9] 13.9 µM | [10] 26.2 µM | [11] 18.3 µM | [14] 35.5 µM | [15] 19.1 µM | [16] 15.3 µM | [17] 16.7 µM | [18] 13 µM
